Data as given in US20070049593A1 (priority 2004, published 2007).
Where a name gives a salt, the structure may show the parent alone.

What follows are compounds tested against T1, HCV polymerase (Hepatitis C virus genotype 1b, UniProt P26663) (assay: biochemical). Conditions: not given.
T1 construct: a region encoding NS5B (J Virol 1991 March, 65(3), 1105-13, 544 amino acids after deletion of 47 amino acids on the C-terminal); 6xHis (C); made in house; host or cells: Escherichia coli
T1 sequence (P26663 2420-2963): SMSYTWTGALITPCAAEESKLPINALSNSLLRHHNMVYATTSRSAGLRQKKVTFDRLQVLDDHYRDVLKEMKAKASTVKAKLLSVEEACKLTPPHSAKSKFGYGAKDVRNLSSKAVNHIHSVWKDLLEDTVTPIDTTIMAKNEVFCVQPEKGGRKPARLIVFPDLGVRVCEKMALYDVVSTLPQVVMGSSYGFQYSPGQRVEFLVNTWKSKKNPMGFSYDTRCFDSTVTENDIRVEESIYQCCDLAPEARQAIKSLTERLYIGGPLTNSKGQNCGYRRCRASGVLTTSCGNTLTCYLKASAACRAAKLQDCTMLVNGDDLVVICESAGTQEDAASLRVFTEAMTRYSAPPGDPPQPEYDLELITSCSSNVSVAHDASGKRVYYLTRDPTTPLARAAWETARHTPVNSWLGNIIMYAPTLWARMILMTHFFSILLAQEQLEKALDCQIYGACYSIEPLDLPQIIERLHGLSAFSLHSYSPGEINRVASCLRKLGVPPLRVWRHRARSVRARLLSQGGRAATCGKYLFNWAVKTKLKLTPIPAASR
Parameters: species or system HCV BK strain
Excerpt: The evaluation of the HCV polymerase inhibitory activity of the compound of the present invention is explained in the following. This polymerase is an enzyme coded for by the non-structural protein region called NS5B on the genome RNA of HCV (EMBO J., 15:12-22, 1996).
Using, as a template, a cDNA clone corresponding to the full length genome RNA of HCV BK strain obtained from the blood of a patient with hepatitis C, a region encoding NS5B (J Virol 1991 March, 65(3), 1105-13, 544 amino acids after deletion of 47 amino acids on the C-terminal) was amplified by PCR. The objective gene was prepared by adding a 6 His tag {base pair encoding 6 continuous histidine (His)}to the 3′ end thereof and transformed to Escherichia coli. The Escherichia coli capable of producing the objective protein was cultured. The obtained cells were suspended in a buffer solution and crushed in a microfluidizer.
Using a synthetic primer designed based on the sequence of HCV genomic 3′ untranslated region, a DNA fragment (148 bp) containing polyU and 3′X sequence was entirely synthesized and cloned into plasmid pBluescript SK II(+) (Stratagene). The cDNA encoding full length NS5B, which was prepared in i) above, was digested with restriction enzyme KpnI to give a cDNA fragment containing the nucleotide sequence of from the restriction enzyme cleavage site to the termination codon. This cDNA fragment was inserted into the upstream of 3′ untranslated region of the DNA in pBluescript SK II(+) and ligated. The about 450 bp inserted DNA sequence was used as a template in the preparation of substrate RNA.
RNA was synthesized (37° C., 3 hr) by run-off method using this purified DNA as a template, a promoter of pBluescript SK II(+), MEGAscript RNA synthesis kit (Ambion) and T7 RNA polymerase. DNase I was added and the mixture was incubated for 1 hr. The template DNA was removed by decomposition to give a crude RNA product.
A test substance (compound of the present invention) and a reaction mixture (30 μl) having the following composition were reacted at 25° C. for 90 min.
10% Trichloroacetic acid at 4° C. and 1% sodium pyrophosphate solution (150 μl) were added to this reaction mixture to stop the reaction. The reaction mixture was left standing in ice for 15 min to insolubilize RNA. This RNA was trapped on a glass filter (Whatman GF/C and the like) upon filtration by suction. This filter was washed with a solution containing 1% trichloroacetic acid and 0.1% sodium pyrophosphate, washed with 90% ethanol and dried. A liquid scintillation cocktail (Packard) was added and the radioactivity of RNA synthesized by the enzyme reaction was measured on a liquid scintillation counter.
The HCV polymerase inhibitory activity (IC50) of the compound of the present invention was calculated from the values of radioactivity of the enzyme reaction with and without the test substance.
Reaction mixture: HCV polymerase (0.5 μg/ml) obtained in i), substrate RNA (5 μg/ml) obtained in ii), ATP (50 μM), GTP (50 μM), CTP ([…]), UTP (2 μM), [5,6-^3H]UTP (46 Ci/mmol (Amersham), 1 μCi) 20 mM Tris-HCl (pH 7.5), EDTA (1 mM), MgCl2 (5 mM), NaCl (50 mM), DTT (1 mM), BSA (0.01%)
CCN1CCN(C(=O)CCCN2CCn3c(c(C4CCCCC4)c4ccc(C(=O)O)cc43)-c3ccccc32)CC1 [Example 1-62, 13-cyclohexyl-5-[4-(4-ethylpiperazin-1-yl)-4-oxobutyl]-6,7-dihydro-5H-benzo[5,6][1,4]diazepino[7,1-a]indole-10-carboxylic acid dihydrochloride] showed an IC50 of under 0.1 µM.
Compound Cc1ccc2c(c1)N(CC(=O)N1CCOCC1)CCn1c-2c(C2CCCCC2)c2ccc(C(=O)O)cc21 [Example 1-63, 13-cyclohexyl-3-methyl-5-[2-(morpholin-4-yl)-2-oxoethyl]-6,7-dihydro-5H-benzo[5,6][1,4]diazepino[7,1-a]indole-10-carboxylic acid monohydrochloride] has an IC50 of under 0.1 µM.
With COc1ccc2c(c1)N(CC(=O)N1CCOCC1)CCn1c-2c(C2CCCCC2)c2ccc(C(=O)O)cc21 [Example 1-64, 13-cyclohexyl-3-methoxy-5-[2-(morpholin-4-yl)-2-oxoethyl]-6,7-dihydro-5H-benzo[5,6][1,4]diazepino[7,1-a]indole-10-carboxylic acid monohydrochloride] the IC50 was under 0.1 µM.
For COc1ccc2c(c1)N(CC(=O)N1CCCCC1)CCn1c-2c(C2CCCCC2)c2ccc(C(=O)O)cc21 [Example 1-65, 13-cyclohexyl-3-methoxy-5-[2-oxo-2-(piperidin-1-yl)ethyl]-6,7-dihydro-5H-benzo[5,6][1,4]diazepino[7,1-a]indole-10-carboxylic acid monohydrochloride], the IC50 was under 0.1 µM.
Work on CCN1CCN(C(=O)CN2CCn3c(c(C4CCCCC4)c4ccc(C(=O)O)cc43)-c3ccc(OC)cc32)CC1 [Example 1-66, 13-cyclohexyl-5-[2-(4-ethylpiperazin-1-yl)-2-oxoethyl]-3-methoxy-6,7-dihydro-5H-benzo[5,6][1,4]diazepino[7,1-a]indole-10-carboxylic acid dihydrochloride] yielded an IC50 of under 0.1 µM.
In the case of COc1ccc2c(c1)N(CCN1CCOCC1)CCn1c-2c(C2CCCCC2)c2ccc(C(=O)O)cc21 [Example 1-67, 13-cyclohexyl-3-methoxy-5-[2-(morpholin-4-yl)ethyl]-6,7-dihydro-5H-benzo[5,6][1,4]diazepino[7,1-a]indole-10-carboxylic acid dihydrochloride], the IC50 is reported as under 0.1 µM.
Compound Cc1ccc2c(c1)N(CCN1CCOCC1)CCn1c-2c(C2CCCCC2)c2ccc(C(=O)O)cc21 [Example 1-68, 13-cyclohexyl-3-methyl-5-[2-(morpholin-4-yl)ethyl]-6,7-dihydro-5H-benzo[5,6][1,4]diazepino[7,1-a]indole-10-carboxylic acid dihydrochloride] has an IC50 of under 0.1 µM.
O=C(O)c1ccc2c(C3CCCCC3)c3n(c2c1)CCN(CCN1CCCOCC1)c1ccccc1-3 [Example 1-69, 13-cyclohexyl-5-[2-(1,4-oxazepan-4-yl)ethyl]-6,7-dihydro-5H-benzo[5,6][1,4]diazepino[7,1-a]indole-10-carboxylic acid dihydrochloride] showed an IC50 of under 0.1 µM.
Compound CS(=O)(=O)N1CCN(C(=O)CN2CCn3c(c(C4CCCCC4)c4ccc(C(=O)O)cc43)-c3ccccc32)CC1 [Example 1-70, 13-cyclohexyl-5-[2-(4-methanesulfonylpiperazin-1-yl)-2-oxoethyl]-6,7-dihydro-5H-benzo[5,6][1,4]diazepino[7,1-a]indole-10-carboxylic acid monohydrochloride] has an IC50 of under 0.1 µM.
For CCC1CCN(C(=O)CN2CCn3c(c(C4CCCCC4)c4ccc(C(=O)O)cc43)-c3ccccc32)CC1 [Example 1-71, 13-cyclohexyl-5-[2-(4-ethylpiperidin-1-yl)-2-oxoethyl]-6,7-dihydro-5H-benzo[5,6][1,4]diazepino[7,1-a]indole-10-carboxylic acid monohydrochloride], the IC50 was under 0.1 µM.
Compound CC1CCN(C(=O)CN2CCn3c(c(C4CCCCC4)c4ccc(C(=O)O)cc43)-c3ccccc32)CC1 [Example 1-72, 13-cyclohexyl-5-[2-(4-methylpiperidin-1-yl)-2-oxoethyl]-6,7-dihydro-5H-benzo[5,6][1,4]diazepino[7,1-a]indole-10-carboxylic acid monohydrochloride] has an IC50 of under 0.1 µM.
Work on CCC1CCN(CCN2CCn3c(c(C4CCCCC4)c4ccc(C(=O)O)cc43)-c3ccccc32)CC1 [Example 1-73, 13-cyclohexyl-5-[2-(4-ethylpiperidin-1-yl)ethyl]-6,7-dihydro-5H-benzo[5,6][1,4]diazepino[7,1-a]indole-10-carboxylic acid dihydrochloride] yielded an IC50 of under 0.1 µM.
For COc1ccc2c(c1)N(CCN1CCCCC1)CCn1c-2c(C2CCCCC2)c2ccc(C(=O)O)cc21 [Example 1-74, 13-cyclohexyl-3-methoxy-5-[2-(piperidin-1-yl)ethyl]-6,7-dihydro-5H-benzo[5,6][1,4]diazepino[7,1-a]indole-10-carboxylic acid dihydrochloride], the IC50 was under 0.1 µM.
For CC1CCN(CCN2CCn3c(c(C4CCCCC4)c4ccc(C(=O)O)cc43)-c3ccccc32)CC1 [Example 1-75, 13-cyclohexyl-5-[2-(4-methylpiperidin-1-yl)ethyl]-6,7-dihydro-5H-benzo[5,6][1,4]diazepino[7,1-a]indole-10-carboxylic acid dihydrochloride], the IC50 was under 0.1 µM.
Work on CCN1CCN(C(=O)CN2CCn3c(c(C4CCCCC4)c4ccc(C(=O)O)cc43)-c3ccc(Cl)cc32)CC1 [Example 1-76, 3-chloro-13-cyclohexyl-5-[2-(4-ethylpiperazin-1-yl)-2-oxoethyl]-6,7-dihydro-5H-benzo[5,6][1,4]diazepino[7,1-a]indole-10-carboxylic acid dihydrochloride] yielded an IC50 of under 0.1 µM.
Compound O=C(O)c1ccc2c(C3CCCCC3)c3n(c2c1)CCN(CC(=O)N1CCCCC1)c1cc(Cl)ccc1-3 [Example 1-77, 3-chloro-13-cyclohexyl-5-[2-oxo-2-(piperidin-1-yl)ethyl]-6,7-dihydro-5H-benzo[5,6][1,4]diazepino[7,1-a]indole-10-carboxylic acid monohydrochloride] has an IC50 of under 0.1 µM.
O=C(O)c1ccc2c(C3CCCCC3)c3n(c2c1)CCN(CC(=O)N1CCCCCC1)c1ccccc1-3 [Example 1-78, 5-[2-(azepan-1-yl)-2-oxoethyl]-13-cyclohexyl-6,7-dihydro-5H-benzo[5,6][1,4]diazepino[7,1-a]indole-10-carboxylic acid monohydrochloride] showed an IC50 of under 0.1 µM.
In the case of O=C(O)c1ccc2c(C3CCCCC3)c3n(c2c1)CCN(CCCCN1CCOCC1)c1ccccc1-3 [Example 1-80, 13-cyclohexyl-5-[4-(morpholin-4-yl)butyl]-6,7-dihydro-5H-benzo[5,6][1,4]diazepino[7,1-a]indole-10-carboxylic acid dihydrochloride], the IC50 is reported as under 0.1 µM.
For O=C(O)c1ccc2c(C3CCCCC3)c3n(c2c1)CCN(CC(=O)N1CCN(c2ccccc2)CC1)c1ccccc1-3 [Example 1-81, 13-cyclohexyl-5-[2-oxo-2-(4-phenylpiperazin-1-yl)ethyl]-6,7-dihydro-5H-benzo[5,6][1,4]diazepino[7,1-a]indole-10-carboxylic acid dihydrochloride], the IC50 was under 0.1 µM.
Work on O=C(O)c1ccc2c(C3CCCCC3)c3n(c2c1)CCN(CCN1CCN(c2ccccc2)CC1)c1ccccc1-3 [Example 1-82, 13-cyclohexyl-5-[2-(4-phenylpiperazin-1-yl)ethyl]-6,7-dihydro-5H-benzo[5,6][1,4]diazepino[7,1-a]indole-10-carboxylic acid trihydrochloride] yielded an IC50 of under 0.1 µM.

Same assay, conditions: 25° C., 90 min; [5,6-3H]UTP incorporation into RNA; read-out: HCV polymerase inhibitory activity IC50
Work on O=C(O)c1ccc2c(C3CCCCC3)c3n(c2c1)CCN(CCN1CCOCC1)c1cc(Cl)ccc1-3 [Example 1-79, 3-chloro-13-cyclohexyl-5-[2-(morpholin-4-yl)ethyl]-6,7-dihydro-5H-benzo[5,6][1,4]diazepino[7,1-a]indole-10-carboxylic acid dihydrochloride] yielded an IC50 of under 0.1 µM.
